Measured values: patent US20250214942A1, “INHIBITORS OF RECEPTOR INTERACTING PROTEIN KINASE I FOR THE TREATMENT OF DISEASE” (Board of Regents, The University of Texas System, priority 2019, published 2025)
pIC50: −log10 of the molar value.

The compounds below were run against RIPK1 (Homo sapiens (Human), UniProt Q13546) (assay: ADP-Glo kinase assay (RIPK1 activity, conversion of ATP to ADP)). Details: 5 nM RIPK1, 50 μM ATP, 6 h reaction; footnote symbol (a); read-out: RIPK1 Enzyme Avg IC50.
Assay type: biochemical
Method: In order to measure RIPK1 activity the ADP-Glo kinase assay (Promega, Catalog #V7002) was used to measure the conversion of ATP to ADP. This enzymatic assay was performed in a 384-well white, Optiplate (Perkin Elmer, Catalog #6007299) with assay buffer consisting of 50 mM HEPES pH 7.5 (Gibco, Catalog #15630-080), 50 mM NaCl (Teknova, Catalog #S0252), 30 mM MgCl2 (Ambion, Catalog #AM9530G), 1 mM DTT (Santa Cruz Biotechnology, Catalog #sc-29089), 0.05% BSA (Sigma, Catalog #A3059-50G) and 0.02% CHAPS (Sigma, Catalog #C5070-5G). Stock solutions of the test compounds were prepared in 100% DMSO (Sigma, Catalog #D2650) and serially diluted 1:3 using 100% DMSO. Compounds were additionally diluted 1:40 in assay buffer, and 2 μL/well were transferred to the assay plate. 4 μL/well (final concentration of 5 nM) of RIPK1 protein (SignalChem, Catalog #R07-1IG-05) diluted in assay buffer and added to the assay plate followed by a 10 minute preincutation at rt. 4 μL/well of ATP (Promega, Catalog #V7002) (final concentration of 50 μM) diluted in assay buffer were then added to the assay plate followed by a 6 h reaction time. Final concentrations of RIPK1 and ATP refer to a 10 μL volume. Luminescence was measured using a BioTek Synergy™ NEO plate reader. IC50 values were calculated using a four-parameter logistic curve fit using Genedata Screener software.

Sequence of RIPK1 (Q13546 1-327): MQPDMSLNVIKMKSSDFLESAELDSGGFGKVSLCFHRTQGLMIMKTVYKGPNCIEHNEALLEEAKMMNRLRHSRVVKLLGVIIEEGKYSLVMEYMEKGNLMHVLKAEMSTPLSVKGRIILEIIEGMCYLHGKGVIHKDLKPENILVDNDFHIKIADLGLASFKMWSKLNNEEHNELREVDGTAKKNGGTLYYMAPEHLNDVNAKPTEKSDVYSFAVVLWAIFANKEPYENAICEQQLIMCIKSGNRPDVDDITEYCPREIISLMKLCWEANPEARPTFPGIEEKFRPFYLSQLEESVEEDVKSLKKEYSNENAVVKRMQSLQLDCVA

| pIC50 | Compound |
| --- | --- |
| < 4.30 | CCC(=O)NC12CC(C(=O)N3CCCC3c3cccc(C)c3)(C1)C2 (centres unmarked) [Example 118, N-(3-(2-(m-tolyl)pyrrolidine-1-carbonyl)bicyclo[1.1.1]-pentan-1-yl)propionamide] |
| < 4.30 | O=C(NCc1cc(F)cc(F)c1)C12CC(CO)(C1)C2 [Example 91, N-(3,5-difluorobenzyl)-3-(hydroxymethyl)bicyclo-[1.1.1]pentane-1-carboxamide] |
| < 4.30 | N#Cc1cc(OCC23CC(C(=O)N4CC[C@@H](Oc5cc(F)ccc5F)C4)(C2)C3)ncn1 [Example 39, (R)-6-((3-(3-(2,5-difluorophenoxy)pyrrolidine-1-carbonyl)-bicyclo[1.1.1]pentan-1-yl)methoxy)pyrimidine-4-carbonitrile] |
| < 4.30 | Cc1cccc(C2CCCN2C(=O)C23CC(N4C(=O)CCC4=O)(C2)C3)c1 (centres unmarked) [Example 25, 1-(3-(2-(m-Tolyl)pyrrolidine-1-carbonyl)bicyclo[1.1.1]pentan-1-yl)pyrrolidine-2,5-dione] |
| < 4.30 | Cc1cccc(C2CCCN2C(=O)C23CC(Nc4nccc(C#N)n4)(C2)C3)c1 (centres unmarked) [Example 105, 2-((3-(2-(m-tolyl)pyrrolidine-1-carbonyl)bicyclo[1.1.1]-pentan-1-yl)amino)-pyrimidine-4-carbonitrile] |
| < 4.30 | Cc1cccc(C2CCCN2C(=O)C23CC(O)(C2)C3)c1 (centres unmarked) [Example 120, (3-hydroxybicyclo[1.1.1]-pentan-1-yl)(2-(m-tolyl)-pyrrolidin-1-yl)methanone] |
| < 4.30 | N#CC12CC(C(=O)N3CCC(Oc4ccccc4)C3)(C1)C2 (centres unmarked) [Example 116, 3-(3-phenoxypyrrolidine-1-carbonyl)bicyclo[1.1.1]-pentane-1-carbonitrile] |
| < 4.30 | O=C(N1CC[C@@H](Oc2cc(F)ccc2F)C1)C12CC(CO)(C1)C2 [Example 38, (R)-(3-(2,5-Difluorophenoxy)pyrrolidin-1-yl)(3-(hydroxymethyl)-bicyclo[1.1.1]pentan-1-yl)methanone] |
| < 4.30 | CC(=O)NC12CC(C(=O)N3CCCC3c3cccc(C)c3)(C1)C2 (centres unmarked) [Example 119, N-(3-(2-(m-tolyl)pyrrolidine-1-carbonyl)bicyclo[1.1.1]-pentan-1-yl)acetamide] |

Same assay, conditions: 5 nM RIPK1, 50 μM ATP, 6 h reaction; read-out: RIPK1 Enzyme Avg IC50

| pIC50 | Compound |
| --- | --- |
| 6.33 | N#Cc1cnn(CC23CC(C(=O)N4CC(F)CC4c4cccc(F)c4)(C2)C3)c1 (centres unmarked) [Example 33, 1-((3-(4-Fluoro-2-(3-fluorophenyl)pyrrolidine-1-carbonyl)-bicyclo[1.1.1]pentan-1-yl)methyl)-1H-pyrazole-4-carbonitrile] |
| 5.27 | O=C(Nc1cc(Cl)ncn1)C12CC(C(=O)N3N=CCC3c3cc(F)cc(F)c3)(C1)C2 (centres unmarked) [Example 76, N-(6-chloropyrimidin-4-yl)-3-(5-(3,5-difluorophenyl)-4,5-dihydro-1H-pyrazole-1-carbonyl)bicyclo[1.1.1]-pentane-1-carboxamide] |
| 7.62 | N#Cc1ccc2c(cnn2CC23CC(C(=O)N4N=CCC4c4cc(F)ccc4F)(C2)C3)c1 (centres unmarked) [Example 53, 1-((3-(5-(2,5-difluorophenyl)-4,5-dihydro-1H-pyrazole-1-carbonyl)-bicyclo[1.1.1]pentan-1-yl)methyl)-1H-indazole-5-carbonitrile] |
| 5.07 | O=C(N1N=CCC1c1ccccc1)C12CC(O)(C1)C2 (centres unmarked) [Example 45, (3-Hydroxybicyclo[1.1.1]pentan-1-yl)(5-phenyl-4,5-dihydro-1H-pyrazol-1-yl)methanone] |
| 4.89 | CNC(=O)C12CC(C(=O)N3N=CCC3c3cc(F)cc(F)c3)(C1)C2 (centres unmarked) [Example 78, 3-(5-(3,5-difluorophenyl)-4,5-dihydro-1H-pyrazole-1-carbonyl)-N-methylbicyclo-[1.1.1]pentane-1-carboxamide] |
| 6.79 | N#Cc1cncc(OCC23CC(C(=O)N4CC(F)CC4c4cccc(F)c4)(C2)C3)n1 (centres unmarked) [Example 96, 6-((3-(4-fluoro-2-(3-fluoro-phenyl)pyrrolidine-1-carbonyl)bicyclo[1.1.1]-pentan-1-yl)methoxy)-pyrazine-2-carbonitrile] |
| 6.69 | Cc1cccc(OCC23CC(C(=O)N4CC(F)CC4c4cccc(F)c4)(C2)C3)c1 (centres unmarked) [Example 108, (4-fluoro-2-(3-fluorophenyl)-pyrrolidin-1-yl)(3-((m-tolyloxy)methyl)bicyclo-[1.1.1]pentan-1-yl)methanone] |
| 6.55 | N#Cc1cnc(OCC23CC(C(=O)N4CC(F)CC4c4cccc(F)c4)(C2)C3)nc1 (centres unmarked) [Example 100, 2-((3-(4-fluoro-2-(3-fluorophenyl)pyrrolidine-1-carbonyl)bicyclo[1.1.1]-pentan-1-yl)methoxy)-pyrimidine-5-carbonitrile] |
| 5.82 | O=C(N1N=CCC1c1cc(F)cc(F)c1)C12CC(CN3CCOCC3)(C1)C2 (centres unmarked) [Example 13, (5-(3,5-Difluorophenyl)-4,5-dihydro-1H-pyrazol-1-yl)(3-(morpholinomethyl)bicyclo[1.1.1]pentan-1-yl)methanone] |
| 5.55 | O=C(N1N=CCC1c1cc(F)cc(F)c1)C12CC(CN3C(=O)C4(CC4)c4ccccc43)(C1)C2 (centres unmarked) [Example 125, 1′-((3-(5-(3,5-difluorophenyl)-4,5-dihydro-1H-pyrazole-1-carbonyl)-bicyclo[1.1.1]pentan-1-yl)methyl)-spiro[cyclopropane-1,3′-indolin]-2′-one] |
| 6.00 | CCOC12CC(C(=O)N3CCCC3c3cccc(C)c3)(C1)C2 (centres unmarked) [Example 122, (3-ethoxybicyclo[1.1.1]-pentan-1-yl)(2-(m-tolyl)-pyrrolidin-1-yl)methanone] |
| 7.66 | O=C(N1N=CCC1c1cc(F)cc(F)c1)C12CC(Cn3ncc4c(F)cncc43)(C1)C2 (centres unmarked) [Example 15, (5-(3,5-Difluorophenyl)-4,5-dihydro-1H-pyrazol-1-yl)(3-((4-fluoro-1H-pyrazolo[3,4-c]-pyridin-1-yl)methyl)bicyclo[1.1.1]pentan-1-yl)methanone] |
| 8.02 | N#Cc1ccc2c(cnn2CC23CC(C(=O)N4N=CCC4c4cc(F)cc(F)c4)(C2)C3)n1 (centres unmarked) [Example 179] |
| 5.54 | CN(C)C(=O)C12CC(C(=O)N3N=CCC3c3cc(F)cc(F)c3)(C1)C2 (centres unmarked) [Example 10, 3-(5-(3,5-Difluorophenyl)-4,5-dihydro-1H-pyrazole-1-carbonyl)-N,N-dimethylbicyclo[1.1.1]pentane-1-carboxamide] |
| 4.67 | O=C(O)C12CC(C(=O)N3N=CCC3c3cc(F)cc(F)c3)(C1)C2 (centres unmarked) [Example 2, 3-(5-(3,5-Difluorophenyl)-4,5-dihydro-1H-pyrazole-1-carbonyl)-bicyclo[1.1.1]pentane-1-carboxylic acid] |
| 4.61 | CS(=O)(=O)C1CN(CC23CC(C(=O)N4N=CCC4c4cc(F)cc(F)c4)(C2)C3)C1 (centres unmarked) [Example 80, (5-(3,5-difluorophenyl)-4,5-dihydro-1H-pyrazol-1-yl)(3-((3-(methylsulfonyl)azetidin-1-yl)methyl)bicyclo[1.1.1]-pentan-1-yl)methanone] |

| Compound | pIC50 |
| --- | --- |
| (5-(3,5-difluorophenyl)-4,5-dihydro-1H-pyrazol-1-yl)(3-((3-methyl-1H-pyrazol-1-yl)methyl)bicyclo[1.1.1]-pentan-1-yl)methanone and (5-(3,5-difluorophenyl)-4,5-dihydro-1H-pyrazol-1-yl)(3-((5-methyl-1H-pyrazol-1-yl)methyl)bicyclo[1.1.1]-pentan-1-yl)methanone [Example 190] | 7.52 |
